Consider 2 compounds from article PMC10892041, “Vanadium Complexes with Thioanilide Derivatives of Amino Acids: Inhibition of Human Phosphatases and Specificity in Various Cell Models of Metabolic Disturbances” (Pharmaceuticals, 2024).

In one series the test system is hepatocytes HepG2. In words: Lipid accumulation in the cell model of NAFLD (oleic acid, AdipoRed). Type of series: cell-based, human. Conditions: 10 µM; 24 h. The protocol:
The human hepatocyte HepG2 cell line (ATCC HB-8065) was cultured according to standard protocol in DMEM supplemented with 10% fetal bovine serum, 100 IU/mL penicillin, and […] streptomycin at 37 °C in 5% CO2. Cells were pleated on a 96-well microplate and were used at 18–24 h after seeding.
The induction of hepatic lipid accumulation and studies on the effect of vanadium complexes on this process were carried out based on previous descriptions. […] After 16–24 h, the standard medium was changed for DMEM with 0.1% BSA fatty acid free and 0.5 mM oleic acid as sodium salt and tested compounds were added. Cells were incubated for 24 h, and the intracellular lipid content was evaluated using AdipoRed Adipogenesis Assay Reagent (Lonza) according to the manufacturer’s protocol. Hepatocytes were washed with PBS with calcium and magnesium, and 5 µL AdipoRed Reagent in 200 µL PBS was added, with the mixture incubated for 10 min at 22 °C. Fluorescence signal proportional to lipid content in cells was measured at excitation in 530 nm and emission in 550 nm using a multimodal microplate reader POLARStar Omega (BMG Labtech). The results were normalized to the untreated control (cells with solvent only), wherein the intensity of fluorescence was taken as 100%.

The test system of another series is myocytes C2C12. Kind of series: Scintillation proximity assay, transport of [14C]-deoxy-D-glucose into myocytes C2C12. Type of series: cell-based, mouse. Particulars: 50 µM; control solvent only. The protocol:
The myocyte C2C12 cell line (ATCC CRL-1772), a subclone of myoblasts from mouse muscles, was cultured according to standard protocol in DMEM supplemented with 10% fetal calf serum, 100 IU/ml penicillin, and […] streptomycin at 37 °C in 5% CO2. Cells were pleated on a 96-well microplate and after reach confluence were differentiated in medium with 2% horse serum. Differentiation medium was changed every 72 h.
Scintillation proximity assay (SPA) is a method to measure the real-time accumulation of radiolabeled substrates by adherent cells with no filtration needed. Radioactivity concentrated closer to the scintillator embedded in the plastic bottom of each well provides a stronger signal than the radiolabeled substrate in the culture medium. Uptake of radiolabeled 2-deoxy-D-[U-14C]-glucose was conducted based on previous descriptions.
After 24 h incubation, the tested complexes were added. After 2 h incubation at 37 °C in 5% CO2, the medium was changed to low-glucose medium (1000 mg/L), and the tested complexes were added again, with further incubation for 4 h being conducted.
For cells proceeded as above, 2-deoxy-D-[U-14C]-glucose (250–350 mCi/mmol, NEC720A, PerkinElmer) solution in KRB with a total activity of 0.03 mCi was added to each well. […] Non-specific radioactivity was subtracted from each result (cpm). Two independent experiments with triplicates were conducted.

Another series has as its target T1, SHP1 (Homo sapiens, UniProt P29350).
T1 construct: purchased Sigma-Aldrich
Kind of series: Inhibition of human recombinant tyrosine phosphatase SHP1 (DiFMUP fluorescence). Type of series: biochemical. Particulars: for Inhibition of SHP1, percentage of inhibition of the control: 1 µM, control solvent only, SD did not exceed 6%; for Log IC50 ± SD SHP1: logarithm of IC50. The method, boiled down: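 Human recombinant phosphatases (SHP1 400 ng/mL, SHP2 50 ng/mL, LAR 5 ng/mL final) were pre-incubated 10 min with compound in 25 mM MOPS pH 7.0, 50 mM NaCl, 1 mM DTT, 0.05% Tween-20. DiFMUP (0.1 mM final) was added for 20 min at 23 °C and fluorescence read at 355/560 nm. Screening used 1 µM compound (% inhibition vs vehicle); IC50 also reported.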

In the next series the target is PP2A (Homo sapiens, UniProt P67775). Kind of series: Inhibition of human recombinant non-tyrosine phosphatase PP2A (DiFMUP). Format: biochemical. The protocol: For the inhibition assay of non-tyrosine phosphatases, human recombinant proteins were used (Sigma-Aldrich). The reactions were performed in black opaque 384-well microplates (PerkinElmer). To the solution of the tested complexes, an equal volume of a test solution of phosphatase was added. CDC25A were diluted in reaction buffer to the final concentration of 400 ng/mL as for tyrosine phosphatases (described in the section above), and PPA2 (final 0.5 U/mL) was diluted in 50 mM Tris-HCl, 0.05% Tween-20, and 125 µg/mL protease-free bovine serum albumin (pH 7.0). These solutions were dispensed using an automated injector. After 10 min, a solution of phosphate 6,8-difluoro-4-methyl (DiFMUP; Thermo Fisher Scientific) was added for the PPA2 sample until the final concentration 0.1 mM. For CDC25A samples, 3-O-methylfluorescein phosphate for the final concentration of 0.2 mM was added. Samples were incubated for 180 min at 23 °C, and then the measurements of fluorescence intensity (excitation 355 and emission 560 nm) were performed on a multifunctional plate reader POLARstar Omega (BMG Labtech). Assays were performed in triplicate. The results were expressed as percent of inhibition of untreated control (enzyme with vehicle solvent only).

A further series deals with T2, PTP1B (Homo sapiens, UniProt P18031).
T2 construct: purchased Sigma-Aldrich
T2 sequence (P18031 1-435): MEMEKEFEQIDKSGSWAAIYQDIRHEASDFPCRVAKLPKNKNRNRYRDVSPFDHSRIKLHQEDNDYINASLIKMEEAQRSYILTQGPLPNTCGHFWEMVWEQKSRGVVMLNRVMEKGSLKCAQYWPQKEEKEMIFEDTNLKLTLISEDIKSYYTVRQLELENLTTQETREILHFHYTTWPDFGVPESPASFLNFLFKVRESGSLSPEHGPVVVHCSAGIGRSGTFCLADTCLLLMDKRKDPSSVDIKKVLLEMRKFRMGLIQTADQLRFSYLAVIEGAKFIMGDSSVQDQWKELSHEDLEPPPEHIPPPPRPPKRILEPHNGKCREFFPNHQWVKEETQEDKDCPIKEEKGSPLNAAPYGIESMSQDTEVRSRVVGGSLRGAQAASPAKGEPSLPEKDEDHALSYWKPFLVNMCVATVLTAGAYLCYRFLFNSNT
In words: Inhibition of human recombinant tyrosine phosphatase PTP1B (DiFMUP fluorescence). Conditions: for Inhibition of PTP1B, percentage of inhibition of the control: 1 µM, control solvent only, SD did not exceed 6%; for Log IC50 ± SD PTP1B: logarithm of IC50; for pIC50: read-out: IC50 PTP1B. Format: biochemical. The method, boiled down:
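Human recombinant PTP1B (final 50 ng/mL) in buffer of 25 mM MOPS, 50 mM NaCl, 1 mM DTT and 0.05% Tween-20 (pH 7.0) was dispensed onto test compound in black 384-well plates. After 10 min, DiFMUP was added to 0.1 mM. Plates were incubated 20 min at 23 °C and fluorescence read (ex 355, em 560 nm). Assays were run in triplicate, with inhibition relative to enzyme-plus-vehicle control and IC50 fitted in GraphPad Prism.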

pIC50: −log10 of the molar value.

Chain of PP2A (P67775 whole entry): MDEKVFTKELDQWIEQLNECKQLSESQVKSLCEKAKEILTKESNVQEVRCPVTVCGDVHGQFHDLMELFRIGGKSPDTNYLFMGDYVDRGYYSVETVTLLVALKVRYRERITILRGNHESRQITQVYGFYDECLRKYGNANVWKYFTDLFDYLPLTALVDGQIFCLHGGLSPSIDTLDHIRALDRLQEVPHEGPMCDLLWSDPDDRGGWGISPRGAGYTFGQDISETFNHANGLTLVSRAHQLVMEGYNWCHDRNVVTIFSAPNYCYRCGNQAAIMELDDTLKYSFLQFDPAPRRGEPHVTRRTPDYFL
T1 sequence (P29350 whole entry): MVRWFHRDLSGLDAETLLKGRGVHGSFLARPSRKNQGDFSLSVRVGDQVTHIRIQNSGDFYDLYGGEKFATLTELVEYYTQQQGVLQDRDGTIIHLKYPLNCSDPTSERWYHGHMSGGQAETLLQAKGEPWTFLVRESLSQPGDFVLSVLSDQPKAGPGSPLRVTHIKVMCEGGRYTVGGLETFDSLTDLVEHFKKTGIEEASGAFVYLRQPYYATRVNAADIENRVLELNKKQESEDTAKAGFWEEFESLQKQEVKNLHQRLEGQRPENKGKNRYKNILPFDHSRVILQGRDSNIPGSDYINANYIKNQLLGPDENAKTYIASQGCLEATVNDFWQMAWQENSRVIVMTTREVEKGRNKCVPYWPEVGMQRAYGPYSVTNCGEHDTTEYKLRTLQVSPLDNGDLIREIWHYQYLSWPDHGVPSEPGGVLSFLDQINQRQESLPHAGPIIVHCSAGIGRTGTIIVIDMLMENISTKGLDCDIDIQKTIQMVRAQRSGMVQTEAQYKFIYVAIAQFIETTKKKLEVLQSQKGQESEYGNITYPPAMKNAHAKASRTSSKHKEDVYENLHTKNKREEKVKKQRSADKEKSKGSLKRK

On to `Cc1occc(=O)c1[O-].Cc1occc(=O)c1[O-].[O]=[V+2]` [BMOV, bis(maltolato)oxidovanadium(IV), reference compound], for which the “Lipid accumulation in hepatocytes after steatosis induction with oleic acid, % of control” value in the series on hepatocytes HepG2 was “did not have any significant effect”. Also, the “Transport of [14C]-deoxy-D-glucose into C2C12 myocytes, % of the control” value with myocytes C2C12 is 125 % of control. On SHP1, the pIC50 was 7.85; the “Inhibition of SHP1, percentage of inhibition of the control” value was found to be 76%; the “Log IC50 ± SD SHP1” value was −7.86 ± 0.03. Besides, the “Inhibition of PP2A, percentage inhibition of control ± SD” value on PP2A (1 µM) amounted to 52 ± 15%. For the same compound, the “Inhibition of PP2A, percentage inhibition of control ± SD” value at PP2A (10 µM) was 63 ± 4%. In addition, at PTP1B, the “Inhibition of PTP1B, percentage of inhibition of the control” value is 77%; the “Log IC50 ± SD PTP1B” value is on record as −6.83 ± 0.02; the negative-log IC50 (pIC50) was 6.83.
As for `O=S(=O)([O-])[O-].[O]=[V+2]` [VOSO4, reference compound], the “Lipid accumulation in hepatocytes after steatosis induction with oleic acid, % of control” value in the series on hepatocytes HepG2 is listed as “did not have any significant effect”. Also, in the series with myocytes C2C12, the “Transport of [14C]-deoxy-D-glucose into C2C12 myocytes, % of the control” value is on record as 110 % of control. Besides, on SHP1, the negative-log IC50 (pIC50) is 7.77; the “Inhibition of SHP1, percentage of inhibition of the control” value was determined as 70%; the “Log IC50 ± SD SHP1” value is on record as −7.77 ± 0.02. For the same compound, on PP2A (1 µM), the “Inhibition of PP2A, percentage inhibition of control ± SD” value stood at 32 ± 2%. The “Inhibition of PP2A, percentage inhibition of control ± SD” value at PP2A (10 µM) came to 40 ± 3%. For the same compound, on PTP1B, the “Inhibition of PTP1B, percentage of inhibition of the control” value is recorded as 62%; the “Log IC50 ± SD PTP1B” value is on record as −7.00 ± 0.07; the pIC50 is 7.00.
